Source: publication PMC13366236 (Acta Pharmaceutica Sinica. B, 2025)
Several values for one entry are separate records, joined by “and”; a condition that tells them apart may be missing. Equal values may be shown once.

Key:
HCT-116 cells = assay: Cell viability CCK-8 assay; type: cell-based; details: Homo sapiens, HCT-116, 48 h, read-out: Antiproliferative IC50 ± SD
MDA-MB-231 cells [1] = assay: Cell viability CCK-8 assay; type: cell-based, human; details: for IC50: Homo sapiens, MDA-MB-231, 48 h, read-out: Antiproliferative IC50 ± SD
CYP 2C19 = CYP 2C19 (Homo sapiens, UniProt P33261); assay: CYP enzyme inhibition; details: CYP 2C19 IC50
Chain of CYP 2C19 (P33261 whole entry): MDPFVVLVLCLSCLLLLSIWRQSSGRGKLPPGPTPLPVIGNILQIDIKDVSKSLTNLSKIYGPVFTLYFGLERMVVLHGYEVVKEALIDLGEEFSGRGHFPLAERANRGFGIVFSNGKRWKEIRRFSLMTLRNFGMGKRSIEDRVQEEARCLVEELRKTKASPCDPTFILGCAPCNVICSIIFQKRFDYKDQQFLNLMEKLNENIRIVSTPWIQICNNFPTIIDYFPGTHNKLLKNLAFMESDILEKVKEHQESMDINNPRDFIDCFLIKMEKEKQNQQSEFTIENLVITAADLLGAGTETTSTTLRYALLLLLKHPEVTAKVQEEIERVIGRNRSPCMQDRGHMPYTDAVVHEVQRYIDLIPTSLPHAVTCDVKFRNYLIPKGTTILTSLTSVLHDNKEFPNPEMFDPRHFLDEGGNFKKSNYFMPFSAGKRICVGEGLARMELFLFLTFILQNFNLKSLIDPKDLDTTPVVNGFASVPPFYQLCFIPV

PI3Kδ = PI3Kδ (Homo sapiens, UniProt O00329); assay: biochemical
Chain of PI3Kδ (O00329 whole entry): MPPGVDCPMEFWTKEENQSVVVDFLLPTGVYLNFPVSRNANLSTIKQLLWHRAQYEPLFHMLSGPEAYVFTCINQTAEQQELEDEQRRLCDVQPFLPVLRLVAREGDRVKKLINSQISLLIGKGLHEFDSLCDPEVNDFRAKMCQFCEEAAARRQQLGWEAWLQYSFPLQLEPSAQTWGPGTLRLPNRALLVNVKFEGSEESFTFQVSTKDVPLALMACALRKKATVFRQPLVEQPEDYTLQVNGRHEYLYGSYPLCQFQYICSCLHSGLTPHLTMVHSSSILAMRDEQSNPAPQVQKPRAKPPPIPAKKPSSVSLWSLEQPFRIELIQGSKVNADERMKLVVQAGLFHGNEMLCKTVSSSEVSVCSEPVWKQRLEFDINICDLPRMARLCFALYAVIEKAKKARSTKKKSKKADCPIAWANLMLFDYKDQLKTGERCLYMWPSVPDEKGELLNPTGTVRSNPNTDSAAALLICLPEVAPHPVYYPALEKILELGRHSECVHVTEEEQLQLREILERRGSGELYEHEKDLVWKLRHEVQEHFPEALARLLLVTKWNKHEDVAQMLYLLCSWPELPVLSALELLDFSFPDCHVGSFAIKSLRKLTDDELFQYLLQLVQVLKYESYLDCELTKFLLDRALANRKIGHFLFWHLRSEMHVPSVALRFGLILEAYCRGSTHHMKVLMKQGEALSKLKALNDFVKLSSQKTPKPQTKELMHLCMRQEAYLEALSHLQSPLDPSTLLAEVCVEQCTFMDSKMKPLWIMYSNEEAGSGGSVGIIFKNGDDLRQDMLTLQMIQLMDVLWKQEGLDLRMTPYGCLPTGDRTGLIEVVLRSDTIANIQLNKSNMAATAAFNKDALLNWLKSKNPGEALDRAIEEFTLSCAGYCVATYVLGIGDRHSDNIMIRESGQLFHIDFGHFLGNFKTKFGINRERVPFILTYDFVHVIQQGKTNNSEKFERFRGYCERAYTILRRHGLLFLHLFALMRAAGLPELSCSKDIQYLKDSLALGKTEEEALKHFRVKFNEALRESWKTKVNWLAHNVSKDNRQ
Chain of PI3Kδ (P27986 whole entry partner): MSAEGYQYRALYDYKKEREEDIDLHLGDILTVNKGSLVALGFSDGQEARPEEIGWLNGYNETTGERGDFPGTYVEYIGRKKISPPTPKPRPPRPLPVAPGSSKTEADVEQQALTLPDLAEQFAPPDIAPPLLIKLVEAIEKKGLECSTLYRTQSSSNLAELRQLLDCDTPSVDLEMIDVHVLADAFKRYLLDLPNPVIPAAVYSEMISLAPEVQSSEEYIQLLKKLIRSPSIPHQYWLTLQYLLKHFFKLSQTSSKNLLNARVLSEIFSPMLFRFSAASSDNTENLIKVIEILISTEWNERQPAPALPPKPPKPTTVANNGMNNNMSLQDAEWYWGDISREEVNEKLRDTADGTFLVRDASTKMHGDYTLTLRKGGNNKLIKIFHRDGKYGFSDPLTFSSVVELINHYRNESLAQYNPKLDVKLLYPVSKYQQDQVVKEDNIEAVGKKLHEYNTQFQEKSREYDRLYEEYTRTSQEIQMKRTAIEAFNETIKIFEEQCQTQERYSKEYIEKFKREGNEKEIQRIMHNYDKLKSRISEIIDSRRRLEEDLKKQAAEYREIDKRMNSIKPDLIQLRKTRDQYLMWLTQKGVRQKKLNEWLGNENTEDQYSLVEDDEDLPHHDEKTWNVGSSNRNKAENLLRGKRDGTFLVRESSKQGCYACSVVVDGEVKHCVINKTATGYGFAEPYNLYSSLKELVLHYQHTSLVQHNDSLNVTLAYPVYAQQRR

CYP 2C9 = CYP 2C9 (Homo sapiens, UniProt P11712); assay: CYP enzyme inhibition; details: CYP 2C9 IC50
Chain of CYP 2C9 (P11712 whole entry): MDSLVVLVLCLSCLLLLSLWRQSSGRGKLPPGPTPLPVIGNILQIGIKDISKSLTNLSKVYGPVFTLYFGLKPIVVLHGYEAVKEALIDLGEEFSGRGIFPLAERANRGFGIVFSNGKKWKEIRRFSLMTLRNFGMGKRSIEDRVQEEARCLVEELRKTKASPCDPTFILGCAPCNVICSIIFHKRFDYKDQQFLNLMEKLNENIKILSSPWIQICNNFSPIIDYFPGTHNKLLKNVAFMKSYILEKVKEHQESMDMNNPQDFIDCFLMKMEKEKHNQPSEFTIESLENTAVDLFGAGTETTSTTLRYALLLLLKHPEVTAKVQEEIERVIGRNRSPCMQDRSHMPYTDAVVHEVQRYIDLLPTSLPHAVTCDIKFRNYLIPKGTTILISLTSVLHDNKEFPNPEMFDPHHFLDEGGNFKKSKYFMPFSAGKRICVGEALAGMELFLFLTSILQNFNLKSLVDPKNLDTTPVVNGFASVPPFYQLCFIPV

MDA-MB-436 cells = assay: Cell viability CCK-8 assay; type: cell-based; details: Homo sapiens, MDA-MB-436, 48 h, read-out: Antiproliferative IC50 ± SD
PI3Kα = PI3Kα (Homo sapiens, UniProt P42336); assay: biochemical
CYP 3A4 = CYP 3A4 (Homo sapiens, UniProt P08684); assay: CYP enzyme inhibition; details: CYP 3A4 IC50
Chain of CYP 3A4 (P08684 whole entry): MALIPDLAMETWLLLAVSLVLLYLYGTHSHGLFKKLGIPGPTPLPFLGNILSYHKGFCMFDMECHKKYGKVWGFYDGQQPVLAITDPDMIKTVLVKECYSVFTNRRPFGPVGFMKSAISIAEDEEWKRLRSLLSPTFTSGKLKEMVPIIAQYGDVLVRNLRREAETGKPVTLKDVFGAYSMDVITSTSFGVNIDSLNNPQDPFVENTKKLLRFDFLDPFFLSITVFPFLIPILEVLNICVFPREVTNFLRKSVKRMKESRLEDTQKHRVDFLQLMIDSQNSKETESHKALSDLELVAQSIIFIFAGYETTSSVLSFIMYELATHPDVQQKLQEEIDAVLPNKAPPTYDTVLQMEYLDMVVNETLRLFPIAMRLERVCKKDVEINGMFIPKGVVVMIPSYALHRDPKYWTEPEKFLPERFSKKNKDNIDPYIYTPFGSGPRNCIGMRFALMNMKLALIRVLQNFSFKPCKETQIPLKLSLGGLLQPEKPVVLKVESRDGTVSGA

PI3Kβ = PI3Kβ (Homo sapiens, UniProt P42338); assay: biochemical
Chain of PI3Kβ (P42338 whole entry): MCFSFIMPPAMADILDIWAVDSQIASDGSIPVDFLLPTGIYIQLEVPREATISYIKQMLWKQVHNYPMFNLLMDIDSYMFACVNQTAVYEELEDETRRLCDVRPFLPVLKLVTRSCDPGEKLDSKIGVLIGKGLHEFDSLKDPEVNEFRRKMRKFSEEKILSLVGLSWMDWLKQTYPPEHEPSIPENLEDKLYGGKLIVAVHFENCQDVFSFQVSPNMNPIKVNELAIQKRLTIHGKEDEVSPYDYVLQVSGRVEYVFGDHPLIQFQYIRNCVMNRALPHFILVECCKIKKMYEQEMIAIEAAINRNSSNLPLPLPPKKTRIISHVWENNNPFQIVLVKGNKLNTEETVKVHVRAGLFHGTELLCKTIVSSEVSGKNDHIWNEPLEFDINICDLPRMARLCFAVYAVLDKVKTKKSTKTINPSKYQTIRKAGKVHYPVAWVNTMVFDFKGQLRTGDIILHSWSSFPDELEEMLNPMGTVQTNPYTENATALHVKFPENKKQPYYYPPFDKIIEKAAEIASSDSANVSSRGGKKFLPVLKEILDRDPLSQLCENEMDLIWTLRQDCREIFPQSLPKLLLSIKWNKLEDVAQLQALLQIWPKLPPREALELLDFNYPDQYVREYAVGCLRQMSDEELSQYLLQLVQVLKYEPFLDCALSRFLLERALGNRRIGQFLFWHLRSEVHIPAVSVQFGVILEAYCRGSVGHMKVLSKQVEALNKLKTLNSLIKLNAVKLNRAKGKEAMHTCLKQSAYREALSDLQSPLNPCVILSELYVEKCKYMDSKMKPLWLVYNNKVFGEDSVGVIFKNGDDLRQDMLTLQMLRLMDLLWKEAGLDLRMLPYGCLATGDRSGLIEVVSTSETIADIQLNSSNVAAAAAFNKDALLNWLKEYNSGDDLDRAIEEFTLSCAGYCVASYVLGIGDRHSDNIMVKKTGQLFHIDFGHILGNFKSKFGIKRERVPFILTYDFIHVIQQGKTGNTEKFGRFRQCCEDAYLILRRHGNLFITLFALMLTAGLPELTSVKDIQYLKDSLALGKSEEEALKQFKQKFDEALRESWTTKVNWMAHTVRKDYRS
Chain of PI3Kβ (P27986 whole entry partner): as the sequence (P27986 whole entry partner) above

mTOR [2] = target: T1, mTOR (Homo sapiens, UniProt P42345); assay: mTOR kinase inhibition, Lance Ultra assay; type: biochemical; details: for IC50: mTOR, IC50, mean ± SD of triplicate measurements
MCF-7 cells = assay: Cell viability CCK-8 assay; type: cell-based; details: Homo sapiens, MCF7, 48 h, read-out: Antiproliferative IC50 ± SD
PI3Kγ = PI3Kγ (Homo sapiens, UniProt P48736); assay: biochemical
CYP 1A2 = CYP 1A2 (Homo sapiens, UniProt P05177); assay: CYP enzyme inhibition
Chain of CYP 1A2 (P05177 whole entry): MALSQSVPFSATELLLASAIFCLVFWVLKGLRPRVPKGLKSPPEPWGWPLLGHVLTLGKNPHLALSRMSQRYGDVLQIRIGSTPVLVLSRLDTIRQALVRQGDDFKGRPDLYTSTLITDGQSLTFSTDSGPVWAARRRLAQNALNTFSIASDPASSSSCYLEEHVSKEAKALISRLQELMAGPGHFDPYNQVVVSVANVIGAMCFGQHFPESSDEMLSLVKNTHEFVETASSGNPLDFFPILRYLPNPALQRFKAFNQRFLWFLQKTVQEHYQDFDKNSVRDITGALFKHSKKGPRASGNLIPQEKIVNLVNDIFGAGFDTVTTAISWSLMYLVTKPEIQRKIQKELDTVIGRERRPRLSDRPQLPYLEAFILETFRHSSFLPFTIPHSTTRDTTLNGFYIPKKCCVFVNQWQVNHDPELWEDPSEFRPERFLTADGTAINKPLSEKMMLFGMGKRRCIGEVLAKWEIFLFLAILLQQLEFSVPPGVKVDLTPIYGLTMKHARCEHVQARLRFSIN

CYP 2D6 = CYP 2D6 (Homo sapiens, UniProt P10635); assay: CYP enzyme inhibition; details: CYP 2D6 IC50
MDA-MB-231 xenograft = MDA-MB-231 xenograft tumor model; type: in vivo, female BALB/c nude mice; details: i.v., Q3D × 6, Day 15; for TGI: listed as MT-44; for Tumor size: mean ± SEM
mTOR [3] = target: T1, mTOR; assay: Cellular thermal shift assay; type: cell-based; details: MDA-MB-231 cells, 5 μmol/L, 8 h
MDA-MB-231 cells [4] = assay: Wound healing; type: cell-based, human; details: MDA-MB-231, 0.25, 0.5, 1.0 μmol/L, concentration-dependent
MDA-MB-468 cells = assay: Cell viability CCK-8 assay; type: cell-based; details: Homo sapiens
PI3KC2g(h) = PI3KC2g(h) (Homo sapiens, UniProt O75747); assay: Kinase profiling; type: binding; details: 1.0 μmol/L
MDA-MB-231 cells [5] = assay: Colony formation assay; type: cell-based, human; details: MDA-MB-231, 0.05, 0.1, 0.5 μmol/L
MDA-MB-231 cells [6] = assay: Apoptosis, Annexin V-AF647/7AAD flow cytometry; type: cell-based, human; details: 24 h
[7] = tested on: panel of 200 human kinases; assay: Kinase-specificity profiling; type: binding; details: 1.0 μmol/L
[8] = tested on: cGAS/STING signaling pathway; assay: Western blot of cGAS/STING signaling pathway in MDA-MB-231 cells; type: cell-based, human; details: MDA-MB-231, 0.5‒2.0 μmol/L, 24 h
MDA-MB-231 cells [9] = assay: Autophagy induction, Western blot and LC3B immunofluorescence; type: cell-based, human; details: MDA-MB-231, 0.5, 1, 2 μmol/L, 24 h
MDA-MB-231 cells [10] = assay: Transwell invasion assay; type: cell-based, human; details: MDA-MB-231, concentration-dependent
[11] = tested on: PI3K/Akt/mTOR signaling pathway; assay: Western blot of PI3K/Akt/mTOR signaling pathway in MDA-MB-231 cells; type: cell-based, human; details: MDA-MB-231, 0.5, 1, 2 μmol/L, 24 h
[12] = Pharmacokinetic study in SD rats; type: in vivo
[13] = Sprague-Dawley, rat, plasma, iv, 5 mg/kg
[14] = Sprague-Dawley, rat, plasma, po, 20 mg/kg

NCCC(=O)Nc1ccccc1/N=c1\cc(-c2ccc3nc(N)oc3c2)oc2ccccc12 [Compound 12a, (E)-3-amino-N-(2-((2-(2-aminobenzo[d]oxazol-6-yl)-4H-chromen-4-ylidene)amino)phenyl)propanamide]
IC50 (HCT-116 cells): 1.51 ± 0.361 µM | IC50 (MDA-MB-231 cells [1]): 0.337 ± 0.0128 µM | IC50 (CYP 2C19): 0.68 µM | IC50 (PI3Kδ): > 10 µM | IC50 (CYP 2C9): 0.14 µM | IC50 (MDA-MB-436 cells): 0.498 ± 0.0181 µM | IC50 (PI3Kα): > 10 µM | IC50 (CYP 3A4): 7.86 µM | IC50 (PI3Kβ): > 10 µM | IC50 (mTOR [2]): 0.0452 ± 0.0088 µM | fold more potent than the lead compound MT-1 (mTOR IC50) (mTOR [2]; vs MT-1): 34 fold | IC50 (MCF-7 cells): 0.118 ± 0.0636 µM | IC50 (PI3Kγ): > 10 µM | IC50 (CYP 1A2): > 50 µM | IC50 (CYP 2D6): 5.52 µM

COc1ccc2oc(-c3ccc4nc(N)oc4c3)c/c(=N\c3ccccc3NC(=O)CCN)c2c1 [Compound 12j, (E)-3-amino-N-(2-((2-(2-aminobenzo[d]oxazol-6-yl)-6-methoxy-4H-chromen-4-ylidene)amino)phenyl)propanamide]
IC50 (HCT-116 cells): 0.555 ± 0.315 µM | T/C (MDA-MB-231 xenograft; 10 mg/kg): 61.36% | TGI (MDA-MB-231 xenograft; 10 mg/kg): 38.64% and 38.64 ^d % | Tumor size (MDA-MB-231 xenograft; 10 mg/kg): 210.95 ± 33.18 mm^3 | T/C (MDA-MB-231 xenograft; 20 mg/kg): 27.27% | TGI (MDA-MB-231 xenograft; 20 mg/kg): 72.73% and 72.73 ^e % | Tumor size (MDA-MB-231 xenograft; 20 mg/kg): 115.97 ± 20.63 mm^3 | target engagement of mTOR in CETSA (mTOR [3]): directly interacts with mTOR protein | IC50 (MDA-MB-231 cells [1]): 0.0665 ± 0.0015 µM | fold more potent antiproliferative effect than Doxorubicin (MDA-MB-231 cells [1]; MDA-MB-231): 1.1 fold | fold more potent antiproliferative effect than Everolimus (MDA-MB-231 cells [1]; MDA-MB-231): 34.4 fold | IC50 (CYP 2C19): > 50 µM | IC50 (PI3Kδ): > 10 µM | anti-migration effect (MDA-MB-231 cells [4]): significantly inhibit the migration | IC50 (CYP 2C9): > 50 µM | IC50 (MDA-MB-468 cells; MDA-MB-468, read-out: Antiproliferative IC50): 0.148 µM | inhibition at 1 µM (MDA-MB-468 cells; MDA-MB-468, read-out: Inhibition rate @ 1.0 μmol/L): 74% | IC50 (MDA-MB-436 cells): 0.148 ± 0.0017 µM | IC50 (PI3Kα): > 10 µM | binding to PI3KC2γ (PI3KC2g(h)): weak binding | colony formation ability (MDA-MB-231 cells [5]): significantly inhibited | IC50 (CYP 3A4): > 50 µM | percentage of total apoptotic cells (MDA-MB-231 cells [6]; MDA-MB-231, 0.5 μmol/L): 4.73% | percentage of total apoptotic cells (MDA-MB-231 cells [6]; MDA-MB-231, 1 μmol/L): 9.43% | percentage of total apoptotic cells (MDA-MB-231 cells [6]; MDA-MB-231, 2 μmol/L): 22.23% | binding activity to the panel of kinases [7]: no obvious binding activity | IC50 (PI3Kβ): > 10 µM | phosphorylation of STING(Ser366), TBK(Ser172), IRF3(Ser366) [8]: concentration-dependent increase | IC50 (mTOR [2]): 0.0494 ± 0.0171 µM | autophagy induction (MDA-MB-231 cells [9]): significantly enhanced autophagy induction | IC50 (MCF-7 cells): 0.328 ± 0.0054 µM | invasion (MDA-MB-231 cells [10]): significantly inhibit the invasion | IC50 (PI3Kγ): > 10 µM | IC50 (CYP 1A2): > 50 µM | IC50 (CYP 2D6): 19.9 µM | expression of p-P70S6K(Thr389), p-Akt(Ser473), p-4EBP1(Thr37/46) [11]: significantly downregulated in a concentration-dependent manner | Cl ([12]; SD rats, i.g. 20 mg/kg): 0.75 ± 0.07 mL/min/kg | Vss ([12]; SD rats, i.g. 20 mg/kg): 15.04 ± 4.24 L/kg | AUC(0-inf) [12, 13]: 29900 ng·h/mL | AUC(0-t) [12, 13]: 28800 ng·h/mL | Cmax [12, 13]: 29200 ng/mL | MRT last [12, 13]: 2.93 ± 0.16 h | Tmax [12, 13]: 0.05 h | Vd [12, 13]: 4.43 ± 0.93 L/kg | clearance [12, 13]: 2.83 mL/min/kg | half-life [12, 13]: 14.1 ± 3.35 h | bioavailability ([12]; Sprague-Dawley, rat, plasma, oral, 20 mg/kg): 4.75% | AUC(0-inf) [12, 14]: 5680 ± 501 ng·h/mL | AUC(0-t) [12, 14]: 5300 ± 514 ng·h/mL | Cmax [12, 14]: 1150 ± 174 ng/mL | MRT last [12, 14]: 5.44 ± 0.2 h | Tmax [12, 14]: 1.4 ± 0.55 h | half-life [12, 14]: 14 ± 4.11 h
